“And” between values parts separate entries of the source, which are not always exact repeats. Identical values can stand only once.
Details: Liquid, Falling or rolling sphere viscometry

CC(C)CCCCCCCOC(=O)c1ccccc1C(=O)OCCCCCCCC(C)C
Details | viscosity
273.15 K, 100 kPa | 625.8 mPa·s
273.15 K, 9900 kPa | 845.1 mPa·s
298.15 K, 100 kPa | 87.41 mPa·s and 87.37 mPa·s
298.15 K, 9600 kPa | 110.7 mPa·s
298.15 K, 20600 kPa | 145 mPa·s
298.15 K, 20700 kPa | 145.5 mPa·s
298.15 K, 30100 kPa | 182.5 mPa·s
298.15 K, 30300 kPa | 183 mPa·s
298.15 K, 40700 kPa | 234.2 mPa·s
298.15 K, 50200 kPa | 289.4 mPa·s
298.15 K, 59200 kPa | 356.2 mPa·s
298.15 K, 71600 kPa | 465.4 mPa·s
298.15 K, 82000 kPa | 589 mPa·s
298.15 K, 83300 kPa | 608.4 mPa·s
313.15 K, 100 kPa | 37.71 mPa·s
313.15 K, 10900 kPa | 47.29 mPa·s
313.15 K, 21200 kPa | 58.95 mPa·s
313.15 K, 30600 kPa | 71.54 mPa·s
313.15 K, 40900 kPa | 88.99 mPa·s
313.15 K, 51600 kPa | 109.1 mPa·s
313.15 K, 62400 kPa | 136.7 mPa·s
313.15 K, 71300 kPa | 160.8 mPa·s
313.15 K, 80300 kPa | 192.4 mPa·s
313.15 K, 89800 kPa | 234.4 mPa·s
338.15 K, 100 kPa | 13.37 mPa·s [middle of 4 runs]
338.15 K, 9700 kPa | 15.54 mPa·s
338.15 K, 10700 kPa | 16.28 mPa·s
338.15 K, 19400 kPa | 18.62 mPa·s
338.15 K, 20500 kPa | 19.38 mPa·s
338.15 K, 31000 kPa | 23.29 mPa·s
338.15 K, 31770 kPa | 23.04 mPa·s
338.15 K, 40100 kPa | 27.24 mPa·s
338.15 K, 41110 kPa | 26.91 mPa·s
338.15 K, 50300 kPa | 32.42 mPa·s
338.15 K, 51100 kPa | 31.86 mPa·s
338.15 K, 60400 kPa | 38.31 mPa·s
338.15 K, 60510 kPa | 37.34 mPa·s
338.15 K, 70700 kPa | 45.25 mPa·s
338.15 K, 70710 kPa | 43.6 mPa·s
338.15 K, 80200 kPa | 52.53 mPa·s
338.15 K, 80970 kPa | 51.73 mPa·s
348.15 K, 100 kPa | 9.71 mPa·s
348.15 K, 9800 kPa | 11.47 mPa·s
348.15 K, 20600 kPa | 13.71 mPa·s
348.15 K, 30230 kPa | 15.96 mPa·s
348.15 K, 31300 kPa | 16.34 mPa·s
348.15 K, 40810 kPa | 18.91 mPa·s
348.15 K, 50600 kPa | 22.15 mPa·s
348.15 K, 50710 kPa | 22.05 mPa·s
348.15 K, 61220 kPa | 25.89 mPa·s
348.15 K, 69800 kPa | 29.77 mPa·s
348.15 K, 72330 kPa | 30.55 mPa·s
348.15 K, 85770 kPa | 37.23 mPa·s

Source: the NIST ThermoML archive (doi:10.1021/je900284z)
